ChEMBL document CHEMBL1201862, “PubChem BioAssay data set” (2004)
Active and inactive are the calls of the source.

Tests used:
[1] = target: T1, Type-1 angiotensin II receptor (Homo sapiens, UniProt P30556); assay: AT1 receptor antagonists, dose response, selectivity assay for APJ receptor antagonist project, cell-based, uHTS hits (AID 463214); type: functional;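 further: antagonist potency against angiotensin II stimulated AT1 response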
T1 sequence (P30556 whole entry): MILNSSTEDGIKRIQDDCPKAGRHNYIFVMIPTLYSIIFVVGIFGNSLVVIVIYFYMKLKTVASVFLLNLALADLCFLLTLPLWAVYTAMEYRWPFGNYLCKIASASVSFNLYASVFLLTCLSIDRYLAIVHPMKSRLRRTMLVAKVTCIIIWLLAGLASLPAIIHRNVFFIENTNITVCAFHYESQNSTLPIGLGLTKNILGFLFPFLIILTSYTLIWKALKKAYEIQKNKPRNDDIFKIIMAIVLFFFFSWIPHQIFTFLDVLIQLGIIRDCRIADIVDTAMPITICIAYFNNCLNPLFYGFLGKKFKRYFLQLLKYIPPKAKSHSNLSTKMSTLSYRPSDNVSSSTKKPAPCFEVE

Beta-galactosidase = Beta-galactosidase (Escherichia coli, UniProt Q8VNN2); assay: PubChem AID 485352; type: functional
Beta-galactosidase, sequence (Q8VNN2 whole entry): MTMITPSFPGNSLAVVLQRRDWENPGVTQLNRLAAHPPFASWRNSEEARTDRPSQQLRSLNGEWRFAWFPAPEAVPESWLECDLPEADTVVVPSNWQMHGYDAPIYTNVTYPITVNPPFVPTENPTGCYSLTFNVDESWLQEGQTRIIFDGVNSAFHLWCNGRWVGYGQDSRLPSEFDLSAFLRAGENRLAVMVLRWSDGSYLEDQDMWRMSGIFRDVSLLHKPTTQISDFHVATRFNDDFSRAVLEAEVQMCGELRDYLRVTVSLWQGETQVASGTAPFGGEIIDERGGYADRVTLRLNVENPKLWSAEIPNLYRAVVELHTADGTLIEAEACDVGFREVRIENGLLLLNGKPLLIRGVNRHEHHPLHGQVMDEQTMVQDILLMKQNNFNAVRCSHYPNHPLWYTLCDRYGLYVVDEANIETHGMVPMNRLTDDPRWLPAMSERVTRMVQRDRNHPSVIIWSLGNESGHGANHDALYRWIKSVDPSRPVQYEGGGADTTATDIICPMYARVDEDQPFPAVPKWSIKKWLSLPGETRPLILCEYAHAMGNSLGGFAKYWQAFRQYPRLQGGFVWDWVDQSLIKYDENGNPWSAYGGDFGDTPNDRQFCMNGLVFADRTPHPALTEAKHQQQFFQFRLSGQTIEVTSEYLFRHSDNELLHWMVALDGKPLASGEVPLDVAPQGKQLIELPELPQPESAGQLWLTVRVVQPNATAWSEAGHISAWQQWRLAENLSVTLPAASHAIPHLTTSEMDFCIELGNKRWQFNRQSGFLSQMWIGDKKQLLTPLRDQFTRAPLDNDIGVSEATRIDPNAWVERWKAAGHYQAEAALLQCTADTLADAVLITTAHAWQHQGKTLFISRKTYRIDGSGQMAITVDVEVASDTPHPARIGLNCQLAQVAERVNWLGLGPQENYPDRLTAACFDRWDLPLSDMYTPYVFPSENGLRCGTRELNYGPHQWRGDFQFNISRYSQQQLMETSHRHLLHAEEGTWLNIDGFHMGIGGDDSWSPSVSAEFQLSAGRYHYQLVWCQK

[2] = target: T2, Short transient receptor potential channel 4 (Mus musculus, UniProt Q9QUQ5); assay: mouse TRPC4 channel inhibitors, dose response, cell-based, HEK293 TRPC4/mu-opioid, Fluo-4 calcium (AID 434942); type: functional;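 further: potency of inhibitors blocking the TRPC4 calcium response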
T2 sequence (Q9QUQ5 whole entry): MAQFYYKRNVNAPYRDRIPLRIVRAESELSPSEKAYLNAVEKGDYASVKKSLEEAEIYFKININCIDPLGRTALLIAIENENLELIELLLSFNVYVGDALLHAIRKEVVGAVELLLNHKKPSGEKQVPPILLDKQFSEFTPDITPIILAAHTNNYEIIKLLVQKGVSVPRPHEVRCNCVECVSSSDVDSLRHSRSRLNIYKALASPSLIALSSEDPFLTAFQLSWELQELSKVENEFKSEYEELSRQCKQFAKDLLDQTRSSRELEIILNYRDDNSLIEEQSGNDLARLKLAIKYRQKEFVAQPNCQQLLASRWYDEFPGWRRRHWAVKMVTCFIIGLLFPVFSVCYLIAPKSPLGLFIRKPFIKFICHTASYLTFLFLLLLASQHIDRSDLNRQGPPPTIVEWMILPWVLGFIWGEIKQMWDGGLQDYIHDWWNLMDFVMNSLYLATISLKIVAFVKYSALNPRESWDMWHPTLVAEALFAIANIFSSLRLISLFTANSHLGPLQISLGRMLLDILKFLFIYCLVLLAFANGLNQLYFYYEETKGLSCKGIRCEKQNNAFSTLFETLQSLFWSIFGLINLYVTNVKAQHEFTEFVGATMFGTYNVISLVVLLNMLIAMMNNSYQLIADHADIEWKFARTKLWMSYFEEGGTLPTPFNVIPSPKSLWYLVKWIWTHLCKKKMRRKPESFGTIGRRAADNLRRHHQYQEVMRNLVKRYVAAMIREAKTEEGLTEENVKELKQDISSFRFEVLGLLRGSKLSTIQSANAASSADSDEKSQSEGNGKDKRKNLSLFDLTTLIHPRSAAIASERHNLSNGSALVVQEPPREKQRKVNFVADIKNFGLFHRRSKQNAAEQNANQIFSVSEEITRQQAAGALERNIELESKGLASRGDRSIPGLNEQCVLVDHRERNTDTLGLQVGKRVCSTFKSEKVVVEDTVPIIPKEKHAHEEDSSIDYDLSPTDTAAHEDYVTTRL

[3] = target: Peroxisome proliferator-activated receptor gamma/Nuclear receptor coactivator 2 (Homo sapiens, UniProt P37231); assay: (§1) TR-FRET dose response biochemical High Throughput Screening assay for agonists of the steroid receptor coactivator 2 (SRC-2) recruitment by the peroxisome proliferator-activated receptor gamma (PPAR gamma): non-selective agonists. [Related pubchem assays: 1297, 1032 ]; type: functional
[4] = target: Peroxisome proliferator-activated receptor gamma/Nuclear receptor coactivator 1 (Homo sapiens, UniProt P37231); assay: as §1, with “1 (SRC-1)” for “2 (SRC-2)”, “assays (depositor defined):AID1300, AID1808, AID504735, AID631]” for “assays: 1297, 1032 ]”; type: protein assay
Peroxisome proliferator-activated receptor gamma/Nuclear receptor coactivator 1, sequence (P37231 whole entry): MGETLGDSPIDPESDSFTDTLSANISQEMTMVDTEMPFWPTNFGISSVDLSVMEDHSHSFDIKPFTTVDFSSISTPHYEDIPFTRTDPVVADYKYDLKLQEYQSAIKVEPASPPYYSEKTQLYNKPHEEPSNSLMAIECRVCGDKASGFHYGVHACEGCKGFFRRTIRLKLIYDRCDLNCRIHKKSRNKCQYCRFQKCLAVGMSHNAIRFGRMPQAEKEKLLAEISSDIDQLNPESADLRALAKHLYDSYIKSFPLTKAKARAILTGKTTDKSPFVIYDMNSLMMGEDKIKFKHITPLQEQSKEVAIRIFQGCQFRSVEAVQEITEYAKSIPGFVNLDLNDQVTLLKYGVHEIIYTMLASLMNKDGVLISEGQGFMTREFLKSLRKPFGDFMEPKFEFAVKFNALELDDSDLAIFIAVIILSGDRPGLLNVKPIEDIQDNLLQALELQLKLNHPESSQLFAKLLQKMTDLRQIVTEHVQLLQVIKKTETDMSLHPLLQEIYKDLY
Peroxisome proliferator-activated receptor gamma/Nuclear receptor coactivator 1, sequence (Q15788 whole entry, further chain): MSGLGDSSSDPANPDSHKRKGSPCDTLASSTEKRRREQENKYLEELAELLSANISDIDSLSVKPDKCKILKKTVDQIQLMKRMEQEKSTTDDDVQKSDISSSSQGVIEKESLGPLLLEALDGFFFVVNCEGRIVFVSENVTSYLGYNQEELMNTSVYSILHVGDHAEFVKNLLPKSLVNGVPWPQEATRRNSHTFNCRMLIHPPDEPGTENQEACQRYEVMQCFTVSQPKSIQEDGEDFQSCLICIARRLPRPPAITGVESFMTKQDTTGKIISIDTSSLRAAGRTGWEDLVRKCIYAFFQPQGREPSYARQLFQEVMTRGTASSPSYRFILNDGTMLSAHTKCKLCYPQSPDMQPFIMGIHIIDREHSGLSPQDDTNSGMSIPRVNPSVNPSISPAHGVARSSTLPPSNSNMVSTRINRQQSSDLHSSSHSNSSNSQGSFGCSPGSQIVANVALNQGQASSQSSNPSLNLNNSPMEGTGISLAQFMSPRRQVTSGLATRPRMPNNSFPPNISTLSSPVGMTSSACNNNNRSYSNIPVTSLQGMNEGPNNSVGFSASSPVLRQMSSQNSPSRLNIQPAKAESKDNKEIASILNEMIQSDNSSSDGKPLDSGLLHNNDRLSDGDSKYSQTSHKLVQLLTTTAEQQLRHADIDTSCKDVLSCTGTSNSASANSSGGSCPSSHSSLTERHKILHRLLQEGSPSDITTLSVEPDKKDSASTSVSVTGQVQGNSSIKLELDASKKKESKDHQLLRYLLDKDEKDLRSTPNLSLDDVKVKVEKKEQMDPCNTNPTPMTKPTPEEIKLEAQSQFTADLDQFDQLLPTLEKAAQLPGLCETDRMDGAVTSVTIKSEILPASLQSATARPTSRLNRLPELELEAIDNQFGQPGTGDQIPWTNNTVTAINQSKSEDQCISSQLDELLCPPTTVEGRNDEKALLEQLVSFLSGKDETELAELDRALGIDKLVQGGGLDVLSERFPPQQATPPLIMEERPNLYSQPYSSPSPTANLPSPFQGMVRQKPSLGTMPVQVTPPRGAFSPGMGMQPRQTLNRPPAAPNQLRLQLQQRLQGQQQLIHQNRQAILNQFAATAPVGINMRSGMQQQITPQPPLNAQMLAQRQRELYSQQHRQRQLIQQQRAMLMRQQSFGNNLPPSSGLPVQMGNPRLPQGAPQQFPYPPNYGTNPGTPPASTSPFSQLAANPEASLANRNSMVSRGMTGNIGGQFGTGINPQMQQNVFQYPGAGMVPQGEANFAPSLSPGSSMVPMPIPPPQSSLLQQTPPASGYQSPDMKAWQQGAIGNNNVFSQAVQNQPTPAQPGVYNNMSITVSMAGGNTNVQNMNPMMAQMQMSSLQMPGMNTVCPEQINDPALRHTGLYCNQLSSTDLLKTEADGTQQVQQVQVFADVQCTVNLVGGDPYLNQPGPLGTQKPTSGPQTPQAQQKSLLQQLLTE

[5] = target: Peroxisome proliferator-activated receptor gamma/Nuclear receptor coactivator 3 (Homo sapiens, UniProt P37231); assay: as §1, with “3 (SRC-3)” for “2 (SRC-2)”, “1301 (Confirmation screen.), 1048 (Primary screen.)]” for “1297, 1032 ]”; type: functional
Peroxisome proliferator-activated receptor gamma/Nuclear receptor coactivator 3, sequence (P37231 whole entry): as the sequence (P37231 whole entry) above
Peroxisome proliferator-activated receptor gamma/Nuclear receptor coactivator 3, sequence (Q9Y6Q9 whole entry, further chain): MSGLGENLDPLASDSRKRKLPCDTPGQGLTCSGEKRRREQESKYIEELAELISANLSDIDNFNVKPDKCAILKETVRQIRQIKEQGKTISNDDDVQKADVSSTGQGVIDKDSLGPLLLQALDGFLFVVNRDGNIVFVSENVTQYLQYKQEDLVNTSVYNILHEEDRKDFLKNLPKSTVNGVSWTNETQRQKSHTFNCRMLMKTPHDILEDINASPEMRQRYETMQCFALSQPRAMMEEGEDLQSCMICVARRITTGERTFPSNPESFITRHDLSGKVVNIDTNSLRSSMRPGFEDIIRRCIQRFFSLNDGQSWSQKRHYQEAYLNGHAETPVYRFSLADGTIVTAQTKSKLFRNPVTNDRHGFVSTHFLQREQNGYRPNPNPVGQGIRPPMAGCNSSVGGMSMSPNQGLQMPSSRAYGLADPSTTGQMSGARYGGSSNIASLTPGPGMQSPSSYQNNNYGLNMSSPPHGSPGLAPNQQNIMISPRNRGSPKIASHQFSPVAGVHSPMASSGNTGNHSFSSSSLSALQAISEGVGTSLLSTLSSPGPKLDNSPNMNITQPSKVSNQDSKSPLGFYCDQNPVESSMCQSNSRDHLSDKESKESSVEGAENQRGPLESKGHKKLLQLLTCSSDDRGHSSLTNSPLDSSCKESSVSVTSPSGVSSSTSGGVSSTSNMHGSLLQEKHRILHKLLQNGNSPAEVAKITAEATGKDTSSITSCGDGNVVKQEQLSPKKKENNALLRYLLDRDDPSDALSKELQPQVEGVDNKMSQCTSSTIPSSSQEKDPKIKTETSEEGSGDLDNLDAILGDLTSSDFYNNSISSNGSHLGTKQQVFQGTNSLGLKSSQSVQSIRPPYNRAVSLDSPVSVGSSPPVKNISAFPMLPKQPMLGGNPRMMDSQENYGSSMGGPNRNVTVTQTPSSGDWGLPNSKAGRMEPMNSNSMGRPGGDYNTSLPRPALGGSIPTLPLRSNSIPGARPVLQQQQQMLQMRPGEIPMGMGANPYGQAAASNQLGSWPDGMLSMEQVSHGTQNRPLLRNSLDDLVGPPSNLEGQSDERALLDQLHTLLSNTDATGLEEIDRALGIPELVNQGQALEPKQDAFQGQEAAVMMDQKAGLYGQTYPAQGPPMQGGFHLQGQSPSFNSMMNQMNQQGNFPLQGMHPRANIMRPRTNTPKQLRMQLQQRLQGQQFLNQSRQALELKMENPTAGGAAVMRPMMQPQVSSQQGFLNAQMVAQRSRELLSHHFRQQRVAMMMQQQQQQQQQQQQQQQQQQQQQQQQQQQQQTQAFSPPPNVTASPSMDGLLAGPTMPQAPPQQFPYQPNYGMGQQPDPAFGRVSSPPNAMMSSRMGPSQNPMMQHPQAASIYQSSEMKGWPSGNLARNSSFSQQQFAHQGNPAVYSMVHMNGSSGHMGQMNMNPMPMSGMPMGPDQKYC

[6] = target: DNA (cytosine-5)-methyltransferase 1 (Homo sapiens, UniProt P26358); assay: DNMT1 methyltransferase inhibitors, confirmation, biochemical, fluorescent molecular beacon (AID 602386); type: functional
[7] = target: T3, Ubiquitin-conjugating enzyme E2 N (Homo sapiens, UniProt P61088); type: functional;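 further: Dose-response confirmation in a TR-FRET assay detecting UBC13-driven polyubiquitin chain formation, inhibition measured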
T3 sequence (P61088 whole entry): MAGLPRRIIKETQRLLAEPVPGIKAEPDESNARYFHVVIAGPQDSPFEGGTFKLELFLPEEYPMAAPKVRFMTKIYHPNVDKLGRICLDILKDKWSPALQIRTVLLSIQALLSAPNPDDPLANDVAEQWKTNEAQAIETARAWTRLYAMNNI

Cytochrome P450 2C19 = Cytochrome P450 2C19 (Homo sapiens, UniProt P33261); assay: Cytochrome panel assay with activity outcomes. Panel member name: p450-cyp2c19 Compounds with AC50 equal or less than 10 uM are considered active; type: functional
[8] = cytotoxicity toward DRD oncogenic fibroblasts, dose response, cell-based, non-viral oncogenic, luminescence (AID 1934); type: functional; conditions: Homo sapiens
BJ [9] = assay: cytotoxicity toward BJ-TERT fibroblasts, dose response, cell-based, RAS-independent, luminescence (AID 1933); type: functional; conditions: Homo sapiens
BJ [10] = assay: cytotoxicity toward BJ-TERT-LT-ST fibroblasts, dose response, cell-based, RAS-independent, luminescence (AID 1935); type: functional; conditions: Homo sapiens;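 further: BJ fibroblasts immortalized with TERT plus LT and ST oncogenes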
BJ [11] = assay: cells; type: functional, cell-based; conditions: Homo sapiens
[12] = target: T4, DNA repair and recombination protein RAD54-like (Homo sapiens, UniProt Q92698); assay: inhibitors of human RAD54 branch migration, confirmation, biochemical, fluorescence, cherry-picked samples, dose series (AID 651657); type: functional
T4 sequence (Q92698 whole entry): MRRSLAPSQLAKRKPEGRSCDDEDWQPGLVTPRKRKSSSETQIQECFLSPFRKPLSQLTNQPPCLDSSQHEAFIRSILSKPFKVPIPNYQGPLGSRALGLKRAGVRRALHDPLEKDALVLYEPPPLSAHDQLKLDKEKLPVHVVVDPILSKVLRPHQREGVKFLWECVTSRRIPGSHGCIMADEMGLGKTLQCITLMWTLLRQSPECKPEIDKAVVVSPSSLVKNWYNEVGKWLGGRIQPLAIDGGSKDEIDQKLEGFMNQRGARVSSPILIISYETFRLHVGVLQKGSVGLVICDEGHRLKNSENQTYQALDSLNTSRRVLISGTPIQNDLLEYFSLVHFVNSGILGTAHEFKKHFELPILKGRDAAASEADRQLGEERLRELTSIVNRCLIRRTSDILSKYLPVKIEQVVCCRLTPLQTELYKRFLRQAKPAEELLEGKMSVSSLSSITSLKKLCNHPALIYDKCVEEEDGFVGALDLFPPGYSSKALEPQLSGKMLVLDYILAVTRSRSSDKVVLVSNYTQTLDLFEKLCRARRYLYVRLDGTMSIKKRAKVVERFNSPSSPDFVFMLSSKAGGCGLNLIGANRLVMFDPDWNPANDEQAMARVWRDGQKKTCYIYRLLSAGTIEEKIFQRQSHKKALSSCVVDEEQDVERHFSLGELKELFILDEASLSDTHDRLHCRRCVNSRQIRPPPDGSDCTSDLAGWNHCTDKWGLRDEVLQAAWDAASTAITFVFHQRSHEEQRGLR

INS1 = assay: beta cell apoptosis inhibitors, cytokine rescue, dose response, luminescence, retest (AID 449756); type: functional, cell-based; conditions: Rattus norvegicus;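 further: cell death triggered by IL-1 beta plus TNF-alpha plus IFN-gamma mixture; protective hits raise ATP signal compared with cytokine alone wells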
[13] = target: T5, Microphthalmia-associated transcription factor (Homo sapiens, UniProt O75030); assay: TRPM1 promoter luciferase signal decrease, dose response, MITF inhibitor project, cell-based, SK-MEL-5, cherry-picked, set 3 (AID 493073); type: functional
T5 sequence (O75030 whole entry): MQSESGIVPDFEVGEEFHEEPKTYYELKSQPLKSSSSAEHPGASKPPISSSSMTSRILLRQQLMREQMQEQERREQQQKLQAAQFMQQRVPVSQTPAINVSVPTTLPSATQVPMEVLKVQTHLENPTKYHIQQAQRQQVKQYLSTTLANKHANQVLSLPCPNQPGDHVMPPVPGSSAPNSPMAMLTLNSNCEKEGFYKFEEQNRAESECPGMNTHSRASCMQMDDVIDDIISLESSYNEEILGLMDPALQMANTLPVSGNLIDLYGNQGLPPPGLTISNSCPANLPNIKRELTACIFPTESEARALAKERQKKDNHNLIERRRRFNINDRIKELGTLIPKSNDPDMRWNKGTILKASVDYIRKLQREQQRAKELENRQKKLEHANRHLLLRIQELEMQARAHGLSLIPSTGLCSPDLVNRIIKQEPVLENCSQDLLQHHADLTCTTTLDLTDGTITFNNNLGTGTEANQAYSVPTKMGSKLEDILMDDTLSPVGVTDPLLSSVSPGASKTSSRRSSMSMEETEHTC

Streptococcus = assay: Group A Streptococcus viability loss, dose response, counter-screen for streptokinase expression inhibitor project, luminescence, BacTiterGlo (AID 1915); type: functional, organism-based;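 further: potency for reduction of bacterial viability or growth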
[14] = system: Streptococcus sp. 'group A'; assay: growth inhibition of control SK(-) GAS strain, dose response, counter-screen for streptokinase expression inhibitor project, luminescence, kanamycin, BacTiterGlo, confirmation (AID 1900); type: functional, organism-based
[15] = cytotoxicity toward NIH3T3 fibroblasts, dose response, counter-screen, cell-based, ATP luminescence, mouse fibroblasts (AID 2010); type: functional;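 further: cells exposed to compound for about 90 hours before reading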
[16] = inhibitors of intracellular T. cruzi replication, confirmation, NIH3T3 host cells, beta-gal luminescence (AID 2044); type: functional, cell-based;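 further: intracellular parasites grown in NIH/3T3 mouse fibroblasts as host cells; luminescent beta-galactosidase reporter signal from transgenic T. cruzi replicating inside host cells; inhibitors lower the luminescence signal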

IC50 [1] | EC50 (Beta-galactosidase) | EC50 [3] | EC50 [4] | EC50 [5] | SMILES | also measured
5.7 µM (active) | > 40 µM (inactive) | – | – | – | Cc1ccc(NCC(=O)c2ccccc2)cc1Cl | –
– | – | 29.1 µM (not active) | 42.2 µM (inactive) | > 79.4 µM (not active) | OCC1(CCc2ccccc2)CCN(Cc2ccc3nsnc3c2)CC1 | EC50 [2]: 8.41 µM (active)
– | – | – | – | – | O=C(c1ccc(=O)oc1)N1CCOCC1 | IC50 [6]: 3.67 µM (active)
– | – | > 79.4 µM (not active) | > 79.4 µM (inactive) | > 79.4 µM (not active) | Cn1c(=O)cc(SCC(=O)N2CCCC2)c2ccccc21 | –
– | – | > 79.4 µM (not active) | > 79.4 µM (inactive) | > 79.4 µM (not active) | CCc1cc2c(=O)n(-c3ccccc3)c(=S)[nH]c2s1 | IC50 [7]: > 20 µM (inactive); AC50 (Cytochrome P450 2C19): inconclusive
33.2 µM (not active) | > 40 µM (inactive) | – | – | – | Cc1ccc2c(c1)C(=O)C(=O)N2c1ccc(Cl)cc1 | –
– | – | 24 µM (not active) | 27.8 µM (inactive) | > 79.4 µM (not active) | COc1ccc(CC(=O)Nc2ccc(-c3nc4cc(C)ccc4o3)c(O)c2)cc1OC | –
– | – | – | – | – | Cc1cc[n+](CC(=O)c2cccc([N+](=O)[O-])c2)c2ccccc12 | EC50 [8]: > 150 µM (not active); EC50 (BJ [9]): 25.1 µM (active); IC50 [6]: > 99 µM (inactive); EC50 (BJ [10]): > 150 µM (inconclusive); EC50 (BJ [11]): > 150 µM (not active)
– | – | – | – | – | CN1CCC(N(C)c2nc(-c3ccccc3)nc3ccccc23)CC1 | AC50 [12]: 18.1 µM (active)
– | – | – | – | – | CCCN1CCN(CCCNC(=O)c2cc3c(=O)n(C)c4ccccc4c3n2C)CC1 | AC50 [12]: 34.7 µM (active)
7.99 µM (active) | > 40 µM (inactive) | – | – | – | S=C(N/N=C/c1ccc(Cl)cc1)N1CCOCC1 | –
– | – | – | – | – | COc1ccc2nc(C)cc(Nc3ccc(N4CCOCC4)cc3)c2c1 | EC50 [15]: 27 µM (active); AC50 [12]: 17.4 µM (active); EC50 [16]: 1.79 µM (active)

SMILES | IC50 [1] | EC50 (Beta-galactosidase) | EC50 [3] | EC50 [4] | EC50 [5] | also measured
C/C(=N\NC(=O)COc1ccccc1-c1ccccc1)c1ccccn1 | 3.73 µM (active) | > 40 µM (inactive) | – | – | – | AC50 (INS1): 1.32 µM (active); AC50 [13]: 4.58 µM (active); EC50 (Streptococcus): 4.08 µM (active); EC50 [14]: 1.05 µM (active)
